Drawing on ChEMBL document CHEMBL5154646, “Structure-guided optimization of 1H-imidazole-2-carboxylic acid derivatives affording potent VIM-Type metallo-β-lactamase inhibitors” (Eur J Med Chem, 2022), this text covers IC50 for 18 compounds.

The structures appear in SMILES notation. pIC50: −log10 of the molar value. A value given as a limit tells only on which side of the number the result lay.

Holding throughout (parameters): species or system Bacteria
A short description of assay [1]: Inhibition of bacterial VIM-2 (27 to 266 residues) expressed in Escherichia coli Transetta (DE3) using FC-5 as substrate preincubated with enzyme for 10 mins followed by substrate addition by fluorescence based analysis.
A short description of assay [2]: Inhibition of bacterial IMP-1 (1 to 246 residues) expressed in Escherichia coli Transetta (DE3) using FC-5 as substrate preincubated with enzyme for 10 mins followed by substrate addition by fluorescence based analysis.
The nature of assay [3]: Inhibition of bacterial recombinant full length N-terminal-TEV-His6-tagged VIM-5 expressed in Escherichia coli Transetta using FC-5 as substrate preincubated with enzyme for 10 mins followed by substrate addition by fluorescence based analysis.
Assay [4] can be described thus: Inhibition of bacterial recombinant full length C-terminal-TEV-His6-tagged VIM-1 expressed in Escherichia coli Transetta using FC-5 as substrate preincubated with enzyme for 10 mins followed by substrate addition by fluorescence based analysis.
Assay [5] in a line: Inhibition of bacterial NDM-1 (1 to 270 residues) expressed in Escherichia coli Transetta (DE3) using FC-5 as substrate preincubated with enzyme for 10 mins followed by substrate addition by fluorescence based analysis.

In general, pIC50 refers to −log10 of the IC50, conventionally taken in molar units. Consider `Cc1cn(Cc2ccccc2)c(C(=O)O)n1`, for which the negative-log IC50 (pIC50) was 4.97 in assay [1]; 5.82 in assay [2]; 4.50 in assay [3]; under 3.52 in assay [4]; under 3.52 in assay [5].

Consider `NCCCn1ccnc1C(=O)O`, for which the negative logarithm of the IC50 (pIC50) was 4.37 in assay [1]; under 3.52 in assay [2]; 4.17 in assay [3]; under 3.52 in assay [4]; under 3.52 in assay [5].

Regarding `Nc1cccc(Cn2ccnc2C(=O)O)c1`, the pIC50 was 5.11 in assay [1]; under 3.52 in assay [2]; under 3.52 in assay [3]; under 3.52 in assay [4]; under 3.52 in assay [5].

In the case of `COCCn1ccnc1C(=O)O`, the pIC50 in assay [1] is 4.81; in assay [2], under 3.52; in assay [3], 3.99; in assay [4] it was 3.57; in assay [5], under 3.52.

With `O=C(O)c1nccn1Cc1ccc([N+](=O)[O-])cc1`, the negative logarithm of the IC50 (pIC50) in assay [1] was 5.57; in assay [2], 4.52; in assay [3], 7.19; in assay [4], 4.86; in assay [5], 3.94.

As for `O=C(O)c1nccn1Cc1cccc([N+](=O)[O-])c1`, the pIC50 in assay [1] is 5.45; in assay [2], under 3.52; in assay [3] it was 4.72; in assay [4] it was under 3.52; in assay [5], under 3.52.

With `CCc1ccc(Cn2ccnc2C(=O)O)cc1`, the pIC50 is 5.24 in assay [1]; under 3.52 in assay [2]; 4.63 in assay [3]; under 3.52 in assay [4]; under 3.52 in assay [5].

Regarding `CS(=O)(=O)Cn1ccnc1C(=O)O`, the pIC50 is 4.47 in assay [1]; under 3.52 in assay [2]; 3.60 in assay [3]; under 3.52 in assay [4]; under 3.52 in assay [5].

Turning to `CCCn1ccnc1C(=O)O`, the pIC50 was 5.57 in assay [1]; 4.23 in assay [2]; 4.72 in assay [3]; 4.82 in assay [4]; under 3.52 in assay [5].

Consider `CC(O)Cn1ccnc1C(=O)O` (stereo not given), for which the pIC50 in assay [1], in assay [2], in assay [3], in assay [4] and in assay [5] was under 3.52 each time.

In the case of `CCn1ccnc1C(=O)O`, the pIC50 in assay [1] is 4.50; in assay [2], under 3.52; in assay [3], under 3.52; in assay [4] it was under 3.52; in assay [5], under 3.52.

For the compound `O=C(O)c1nccn1Cc1ccc(C(F)(F)F)cc1`, the negative-log IC50 (pIC50) in assay [1] was 6.25; in assay [2], 4.27; in assay [3] it was 6.55; in assay [4], 4.76; in assay [5] it was under 3.52.

In the case of `O=C(O)c1nccn1Cc1ccc(Cl)c(Cl)c1`, the pIC50 in assay [1] was 7.85; in assay [2] it was 5.03; in assay [3], 7.28; in assay [4], 5.55; in assay [5] it was 4.78.

On to `N#CCCn1ccnc1C(=O)O`, for which the pIC50 was 4.65 in assay [1]; under 3.52 in assay [2]; under 3.52 in assay [3]; under 3.52 in assay [4]; under 3.52 in assay [5].

For the compound `O=C(O)c1nccn1Cc1ccsc1`, the pIC50 in assay [1] is 5.29; in assay [2], under 3.52; in assay [3], 4.52; in assay [4], 3.88; in assay [5] it was under 3.52.

On to `CN(C)CCCn1ccnc1C(=O)O`, for which the negative-log IC50 (pIC50) in assay [1], in assay [2], in assay [3], in assay [4] and in assay [5] was under 3.52 each time.

In the case of `Cn1nnnc1SCCn1ccnc1C(=O)O`, the pIC50 in assay [1] was 5.67; in assay [2] it was 3.79; in assay [3], 4.78; in assay [4], 4.34; in assay [5] it was under 3.52.

As for `CN(C)CCn1ccnc1C(=O)O`, the negative-log IC50 (pIC50) in assay [1], in assay [2], in assay [3], in assay [4] and in assay [5] was under 3.52 each time.
